Entries after “also recorded” stand apart in the source; their conditions may differ.
What was measured:
[1] = Thermal stability of SOD mimetic compounds (retained SOD activity after thermal process in solvents/oils); format: physicochemical; conditions: for retained activity / retained activity after thermal process: 120 minutes; for retained activity after thermal process: solvent not stated; for decline in activity after thermal process: dehydrated ethanol, 60 minutes, FIG. 4
From the text: (§1) In this example, Mn-cpx3, Mn-TBAP, Mn-TMPyP and Mn-TM-2-PyP were purchased from Aldrich Company, and were used as SOD mimetic compounds. These compounds are low-molecular complex having π-conjugate system. These compounds are basically water-soluble, and are also soluble in ethanol and in lubricating oils. In the case where an SOD mimetic compound was to be dissolved in ethylene glycol, and in a food oil containing vegetable sterol and glycerin ester as main components, the SOD mimetic compound was first dissolved in ethanol, and then the ethanol solution was added into ethylene glycol and a food oil. In the case where an SOD mimetic compound was to be dissolved in an engine oil (trade name: Eneos Motor Oil), the SOD mimetic compound was firstly dissolved in dimethyl sulfoxide (DMSO), and then the DMSO solution was added into the engine oil. As for the concentration conditions for thermal stability, investigation was performed in the presence of 1 to 10 μg/mL of an SOD mimetic compound in the water-based solution and 10 to 50 μg/mL of an SOD mimetic compound in the oil-based solution, with 10% of ethanol or DMSO, in the temperature range of 50 to 140° C.
The SOD activity of the SOD mimetic compounds was measured by using as an index the oxidation of a water-soluble tetrazolium salt (WST) by oxygen radicals generated from xanthin-xanthin oxidase. Specifically, the WST was used as a substrate of the oxidation by oxygen radicals, and the activity measurement was performed by using as an index the difference in the production of water-soluble tetrazolium formazan made by the presence and the absence of the SOD mimetic compound (see the following document: H. Ueda, D. Kawana, S. Maeda and M. Sawamura, Biosci. Biotechnol. Biochem., 63, 485-488, 1999). As the WST is oxidized to become water-soluble tetrazolium formazan, ultraviolet absorption occurs at 450 nm. Therefore, by measuring this ultraviolet absorption, the oxidation reaction by oxygen radicals can easily be measured. The activity measurement buffer was a 35 mM sodium carbonate solution (pH 10.2) containing 0.17 mM of xanthin and 0.11 mM of EDTA. The oxidation substrate used was 0.24 mM of the WST. The SOD mimetic compounds were dissolved in ethanol or DMSO. The concentrations thereof at the time of measurement of activity were 0.1 to 0.8 μg/mL.
In this example, the vegetable food oil used was diacyl glycerol. Mn-TMPyP retained 50% of the activity at 70° C. after 120 minutes, and 40% of the activity at 100° C. after 120 minutes. […] It has become clear that Mn-cpx3 is particularly excellent in the SOD-mimetic activity and the thermal stability in food oil.
With regard to Mn-cpx3, which was considered to be the most excellent in activity and thermal stability, the stability thereof in other oil solutions was investigated. […] However, in engine oil, the stability sharply declines to about 10 to 20%.

[2] = Solubility of SOD mimetic compounds in water, ethanol, oils; format: physicochemical; conditions: solvent as stated in value
From the text: as §1

[3] = SOD activity measurement (WST oxidation by oxygen radicals from xanthin-xanthin oxidase, absorption at 450 nm); format: biochemical; conditions: FIG. 2
From the text: In this activity measurement system, the WST used as the oxidation substrate can be considered to be a model compound as the substance that is subject to oxidation by oxygen radicals, that is, as the functional substance. […]

[4] = vegetable food oil (diacyl glycerol), 100° C., FIG. 5

| Compound | retained activity ([1]; vegetable food oil (diacyl glycerol), 70° C., FIG. 5) | retained activity [1, 4] | solubility [2] | relative activity per unit weight with reference to the enzyme activity of the PEG-modified A. per SOD ([3]; after the process in ethanol at 50° C. for 10 minutes) | relative activity per unit weight with reference to the enzyme activity of the PEG-modified A. per SOD ([3]; in water) | retained activity after thermal process ([1]; 50° C.) | retained activity after thermal process ([1]; 100° C.) | decline in activity after thermal process ([1]; 70° C.) | retained activity ([1]; ethylene glycol, 140° C., FIG. 6) | retained activity ([1]; vegetable food oil (diacyl glycerol), 140° C., FIG. 5) | stability in water-based ethanol ([1]; water-based ethanol) |
| --- | --- | --- | --- | --- | --- | --- | --- | --- | --- | --- | --- |
| C[n+]1ccc(-c2c3nc(c(-c4cc[n+](C)cc4)c4ccc([nH]4)c(-c4cc[n+](C)cc4)c4nc(c(-c5cc[n+](C)cc5)c5ccc2[nH]5)C=C4)C=C3)cc1.[Mn+3] [Mn-TMPyP, Mn(III) tetrakis(1-methyl-4-pyridyl)porphyrin] | 50% | 40% |  |  |  |  |  |  |  |  |  |
| manganese (Mn) complex of 7-hydroxyflavone [Mn-cpx3] |  | 60% | soluble in ethylene glycol and in vegetable oil; also recorded: soluble even in oil solutions | 850 times | 460 times | ~100% | ≥ 70% | substantially no decline in the activity | 70% | 50% | highly stable |
| O=C(O)c1ccc(C2=C3C=CC(=N3)C(c3ccc(C(=O)O)cc3)=c3ccc([nH]3)=C(c3ccc(C(=O)O)cc3)c3ccc([n-]3)C(c3ccc(C(=O)O)cc3)c3ccc2[n-]3)cc1.[Cl-].[Mn+3] (stereo not shown) [Mn-TBAP, Mn(III) tetrakis(4-benzoic acid)porphyrin chloride] |  |  |  |  |  |  |  | substantially no decline in the activity |  |  |  |

Reference: patent US8507420B2, “Solvent composition” (Toyota Jidosha Kabushiki Kaisha, priority 2009, dated 2013)
